Data from patent US5607960A, “Indole derivatives as 5-HT1-like agonists for use in migraine” (Pfizer Inc., priority 1993, dated 1997).

Tests used:
"5-HT1 -like" receptor [1] = molecular target: T1, "5-HT1 -like" receptor (Canis lupus familiaris, UniProt P79250); experiment: contraction of dog isolated saphenous vein strip (in vitro "5-HT1 -like" receptor agonist activity); type: cell-based; conditions: for EC50: concentration which causes 50% of the maximum contraction effected by the compound; for RELATIVE POTENCY EC50 (compound) / EC50 (5-HT): ratio to 5-HT
T1 construct: dog isolated saphenous vein strip; from tissue; host or cells: dog isolated saphenous vein strip
Excerpt: EC50 represents the concentration of compound which causes 50% of the maximum contraction effected by it.

[2] = acute toxicity in conscious dog, i.v.; type: in vivo; conditions: doses of up to 1 mg/Kg i.v.
[3] = acute toxicity in conscious mouse, i.v.; type: in vivo; conditions: doses of up to 10 mg/Kg i.v.
"5-HT1 -like" receptor [4] = molecular target: T1, "5-HT1 -like" receptor; conditions: cited from earlier work
carotid vascular bed = conditions: anaesthetized dog; cited from earlier work

T1 sequence (P79250 whole entry): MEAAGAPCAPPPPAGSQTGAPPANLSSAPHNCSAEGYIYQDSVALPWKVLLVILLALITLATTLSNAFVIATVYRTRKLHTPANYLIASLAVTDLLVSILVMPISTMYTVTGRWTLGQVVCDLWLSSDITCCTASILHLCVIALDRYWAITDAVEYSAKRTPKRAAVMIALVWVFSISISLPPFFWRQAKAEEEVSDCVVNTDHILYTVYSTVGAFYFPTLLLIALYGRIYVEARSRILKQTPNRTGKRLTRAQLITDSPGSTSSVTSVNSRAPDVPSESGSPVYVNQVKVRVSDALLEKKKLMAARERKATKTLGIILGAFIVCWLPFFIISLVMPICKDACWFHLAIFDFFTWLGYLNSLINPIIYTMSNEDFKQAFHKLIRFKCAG

SMILES	EC50 ("5-HT1 -like" receptor [1])	RELATIVE POTENCY EC50 (compound) / EC50 (5-HT) ("5-HT1 -like" receptor [1])	further results
CN1CCC[C@@H]1Cc1c[nH]c2ccc(C=CC(C)(C)O)cc12 [Example 1, 5-(3-Hydroxy-3-methyl-1-but-1-enyl)-3-(N-methyl-2(R)-pyrrolidinylmethyl)-1H-indole]	400 nM	7.7	
CC(C)(O)CCc1ccc2[nH]cc(C[C@H]3CCCN3CC3CC3)c2c1 [Example 25, 3-(N-Cyclopropylmethyl-2(R)-pyrrolidinylmethyl)-5-(3-hydroxy-3-methyl-1-butyl)-1H-indole]	480 nM	6.4	
CC(C)(O)CCc1ccc2[nH]cc(C[C@H]3CCCN3)c2c1 [Example 29, 5-(3-Hydroxy-3-methyl-1-butyl)-3-(2(R)-pyrrolidinylmethyl)-1H-indole]	670 nM	9.0	signs of adverse acute toxicity [2]: no signs of adverse acute toxicity; signs of adverse acute toxicity [3]: no signs of adverse acute toxicity
CC(C)(O)CCc1ccc2[nH]cc(C[C@H]3CCCN3CCc3ccncc3)c2c1 [Example 30, 5-(3-Hydroxy-3-methyl-1-butyl)-3-{N-[2-(4-pyridyl)ethyl]-2(R)-pyrrolidinylmethyl}-1H-indole]	940 nM	7.2	
CC(=O)CCc1ccc2[nH]cc(C[C@H]3CCCN3)c2c1 [Example 37, 5-(3-Oxo-1-butyl)-3-(2(R)-pyrrolidinylmethyl)-1H-indole]	130 nM	1.3	
CC(O)CCc1ccc2[nH]cc(C3CCN(C)CC3)c2c1 (centres unmarked) [Example 43, 5-(3-Hydroxy-1-butyl)-3-(N-methyl-4-piperidyl)-1H-indole]	560 nM	8.0	
CC(C)(O)CCc1ccc2[nH]cc(CCN)c2c1 [Example 48, 3-(2-Aminoethyl)-5-(3-hydroxy-3-methyl-1-butyl)-1H-indole]	300 nM	3.2	
CC(O)(CCc1ccc2[nH]cc(C[C@H]3CCCN3)c2c1)C(F)(F)F (stereo partly drawn) [Example 95, 5-(3-Hydroxy-3-trifluoromethyl-1-butyl)-3-(2(R)-pyrrolidinylmethyl)-1H-indole]	320 nM	4.0	
CN(C)C(=O)CCN1CCC[C@@H]1Cc1c[nH]c2ccc(CCC3(O)CCOC3)cc12 (stereo partly drawn) [Example 101, 5-[2-(3-Hydroxy-3-tetrahydrofuranyl)ethyl]-3-{N-[2-(N,N-dimethylcarbamoyl)ethyl]-2(R)-pyrrolidinylmethyl}-1H-indole]	700 nM	10.0	
OC1(CCc2ccc3[nH]cc(C4CCNC4)c3c2)CCCC1 (centres unmarked) [Example 109, 5-[2-(1-Hydroxycyclopentyl)ethyl]-3-(3-pyrrolidinyl)-1H-indole]	750 nM	8.5	
CNS(=O)(=O)Cc1ccc2[nH]cc(CCN(C)C)c2c1 [Sumatriptan, sumatriptan]			contraction of the isolated dog saphenous vein strip ("5-HT1 -like" receptor [4]; P.P.A. Humphrey et al., Brit. J. Pharmacol., 1988, 94, 1123): contracting the isolated dog saphenous vein strip; carotid arterial blood flow (carotid vascular bed): decrease in carotid arterial blood flow; carotid vascular resistance (carotid vascular bed): selective increase in carotid vascular resistance
CSc1ccc2c(c1)C(N1CCN(C)CC1)Cc1ccccc1S2 (centres unmarked) [methiothepin]			blockade of the contraction effect ("5-HT1 -like" receptor [4]; isolated dog saphenous vein strip, known 5-HT antagonist): blocked
